Data reported in patent US5686486A, “4-hydroxy-benzopyran-2-ones and 4-hydroxy-cycloalkyl[b]pyran-2-ones useful to treat retroviral infections” (priority 1995, dated 1997).
Like-named read-outs stand apart in the source and are kept apart here.

Biological target: HIV-1 protease (Human immunodeficiency virus type 1 group M subtype B, UniProt P04585)
Experiment: biochemical
Details: for inhibition at 0.123 µM: read-out: HIV-1 Protease % Inhib, dose 0.123 uM
Summary of the method: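 Biotinylated, FITC-labeled peptide substrate (20 μl of 0.2 μM) incubated with HIV-1 protease (10 μl of 0.1 μM) and compound in 0.1 M sodium acetate pH 5.5, 1.0 M NaCl, 0.05% NP-40, 1 h, room temperature, dark. Streptavidin beads then capture uncleaved substrate; filtered labeled product read by fluorescence, giving percent inhibition.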

[1] = dose 1.100 uM, read-out: HIV-1 Protease % Inhib
[2] = dose 3.300 uM, read-out: HIV-1 Protease % Inhib
[3] = dose 10.000 uM, read-out: HIV-1 Protease % Inhib
[4] = dose 30.000 uM, read-out: HIV-1 Protease % Inhib
[5] = dose 0.370 uM, read-out: HIV-1 Protease % Inhib
[6] = read-out: HIV-1 Protease % Inhib, dose 0.370 uM
[7] = read-out: HIV-1 Protease % Inhib, dose 1.100 uM
[8] = read-out: HIV-1 Protease % Inhib, dose 3.300 uM
[9] = read-out: HIV-1 Protease % Inhib, dose 10.000 uM
[10] = read-out: HIV-1 Protease % Inhib, dose 30.000 uM

Compound	inhibition at 1.1 µM [1] [%]	inhibition at 3.3 µM [2] [%]	inhibition at 10 µM [3] [%]	inhibition at 30 µM [4] [%]	inhibition at 0.37 µM [5] [%]	inhibition at 0.123 µM [%]	inhibition at 0.37 µM [6] [%]	inhibition at 1.1 µM [7] [%]	inhibition at 3.3 µM [8] [%]	inhibition at 10 µM [9] [%]	inhibition at 30 µM [10] [%]
COCCOCCC1CCCCCc2c1oc(=O)c(C(c1ccccc1)C1CC1)c2O (stereo not shown) [Example 172, 3-(Cyclopropylphenylmethyl)-5,6,7,8,9,10-hexahydro-4-hydroxy-10-[2-(2-methoxyethoxy)ethyl]-2H-cycloocta[b]pyran-2-one]	31.9	73.5	97.8	110							
O=c1oc2c(c(O)c1C(c1ccccc1)C1CC1)CCCCCC2CO (stereo not shown) [Example 173, 3-(Cyclopropylphenylmethyl)-5,6,7,8,9,10-hexahydro-4-hydroxy-10-(hydroxymethyl)-2H-cycloocta[b]pyran-2-one]	15	36.5	76.7	97.2							
CC(C)(O)C1CCCCCc2c1oc(=O)c(C(c1ccccc1)C1CC1)c2O (stereo not shown) [Example 175, 3-(Cyclopropylphenylmethyl)-5,6,7,8,9,10-hexahydro-4-hydroxy-10-(1-hydroxy-1-methylethyl)-2H-cycloocta[b]pyran-2-one]	19.4	55.5	88.5	105							
COCCOCCC1CCCCc2c1oc(=O)c(C(c1ccccc1)C1CC1)c2O (stereo not shown) [Example 180, 3-(Cyclopropylphenylmethyl)-6,7,8,9-tetrahydro-4-hydroxy-9-[2-(2-methoxyethoxy)ethyl]-cyclohepta[b]pyran-2(5H)-one]	31.3	67.7	94.1	109							
COCCOCCOCCC1CCCCc2c1oc(=O)c(C(c1ccccc1)C1CC1)c2O (stereo not shown) [Example 181, 3-(Cyclopropylphenylmethyl)-6,7,8,9-tetrahydro-4-hydroxy-9-[2-[2-(2-methoxyethoxy)ethoxy]ethyl]-cyclohepta[b]pyran-2(5H)-one]	10.4	35.1	66.6	79.3							
O=c1oc2c(c(O)c1C(c1ccccc1)C1CC1)CCCCC2CCC1OCCO1 (stereo not shown) [Example 186, 3-(Cyclopropylphenylmethyl)-9-[2-(1,3-dioxolan-2-yl)ethyl]-6,7,8,9-tetrahydro-4-hydroxy-cyclohepta[b]pyran-2(5H)-one]	29.2	64.6	88.7	101							
O=c1oc2c(c(O)c1C(c1ccccc1)C1CC1)CCCCC2CC1CCCOC1 (stereo not shown) [Example 187, 3-(Cyclopropylphenylmethyl)-6,7,8,9-tetrahydro-4-hydroxy-9-[(tetrahydro-2H-pyran-3-yl)methyl]-cyclohepta[b]pyran-2(5H)-one]	32.9	68	90	90.2	10.6						
O=c1oc2c(c(O)c1C(c1ccccc1)C1CC1)CCCCC2CC1CCCCO1 (stereo not shown) [Example 190, 3-(Cyclopropylphenylmethyl)-6,7,8,9-tetrahydro4-hydroxy-9-[(tetrahydro-2H-pyran-2-yl)methyl]-cyclohepta[b]pyran-2(5H)-one]	35.9	79.3	96	102							
O=c1oc2c(c(O)c1C(c1ccccc1)C1CC1)CCCCC2CC1CCOC1 (stereo not shown) [Example 191, 3-(Cyclopropylphenylmethyl)-6,7,8,9-tetrahydro-4-hydroxy-9-[(tetrahydro-3-furanyl)methyl]-cyclohepta[b]pyran-2(5H)-one]	55	93.3	101	100	16.9						
CC(O)CC1CCCCc2c1oc(=O)c(C(c1ccccc1)C1CC1)c2O (stereo not shown) [Example 192, 3-(Cyclopropylphenylmethyl)-6,7,8,9-tetrahydro-4-hydroxy-9-(2-hydroxypropyl)-cyclohepta[b]pyran-2(5H)-one]	24.9	68.8	102	102							
COCCC1CCCCc2c1oc(=O)c(C(c1ccccc1)C1CC1)c2O (stereo not shown) [Example 193, 3-(Cyclopropylphenylmethyl)-6,7,8,9-tetrahydro-4-hydroxy-9-(methoxyethyl)-cyclohepta[b]pyran-2(5H)-one]	35	70.4	97.7	105							
C[C@H](NC(=O)OC(C)(C)C)C(=O)Nc1cccc(C(c2c(O)c3c(oc2=O)CCCCCC3)C2CC2)c1 (stereo partly drawn) [Example 198, Carbamic acid, [2-[[3-[cyclopropyl(5,6,7,8,9,10-hexahydro-4-hydroxy-2-oxo-2H-cycloocta[b]pyran-3-yl)methyl]phenyl]amino]-1-(S)-methyl-2-oxyethyl]-, 1,1-dimethylethyl ester]						67.1	91.9	107	111	115	116
CC(C)(C)OC(=O)NCCCC(=O)Nc1cccc(C(c2c(O)c3c(oc2=O)CCCCCC3)C2CC2)c1 (stereo not shown) [Example 201, Carbamic acid, [4-[[3-[cyclopropyl(5,6,7,8,9,10-hexahydro,-hydroxy-2-oxo-2H-cycloocta[b]pyran-3-yl)methyl]phenyl]amino]-4-oxybutyl]-, 1,1-dimethylethyl ester]						31.2	60.1	80	95.4	100	107
CC(C)(C)OC(=O)N1CCC[C@H]1C(=O)Nc1cccc(C(c2c(O)c3c(oc2=O)CCCCCC3)C2CC2)c1 (stereo partly drawn) [Example 202, 1-(S)-Pyrrolidinecarboxylic acid, 2-[[[3-[cyclopropyl(5,6,7,8,9,10-hexahydro-4-hydroxy-2-oxo-2H-cycloocta[b]pyran-3-yl)methyl]phenyl]amino]carbonyl]-, 1,1-dimethylethyl ester]						20.1	48.1	73.1	88.1	93.8	94.4
C[C@@H](NC(=O)OC(C)(C)C)C(=O)Nc1cccc(C(c2c(O)c3c(oc2=O)CCCCCC3)C2CC2)c1 (stereo partly drawn) [Example 203, Carbamic acid, [2-[[3-[cyclopropyl(5,6,7,8,9,10-hexahydro-4-hydroxy-2-oxo-2H-cycloocta[b]pyran-3-yl)methyl]phenyl]amino]-1-(R)-methyl-2-oxyethyl]-, 1,1-dimethylethyl ester]						15.6	55.8	81.3	94.3	104	94.3
CC(C)(C)OC(=O)N[C@H](Cc1c[nH]cn1)C(=O)Nc1cccc(C(c2c(O)c3c(oc2=O)CCCCCC3)C2CC2)c1 (stereo partly drawn) [Example 204, Carbamic acid, [2-[[3-[cyclopropyl(5,6,7,8,9,10-hexahydro-4-hydroxy-2-oxo-2H-cycloocta[b]pyran-3-yl)methyl]phenyl]amino]-1-(R)-(1H-imidazol-4-ylmethyl)-2-oxoethyl]-, 1,1-dimethylethyl ester]						49	86.5	107	114	117	116
O=C(Nc1cccc(C(c2c(O)c3c(oc2=O)CCCCCC3)C2CC2)c1)c1ccc(Cl)cc1 (stereo not shown) [Example 206, Benzamide, 4-chloro-N-[3-[cyclopropyl(5,6,7,8,9,10-hexahydro-4-hydroxy-2-oxo-2H-cycloocta[b]pyran-3-yl)methyl]phenyl]-]	48	76.4	95.8	93.1	17.9						
O=C(C=Cc1ccccc1)Nc1cccc(C(c2c(O)c3c(oc2=O)CCCCCC3)C2CC2)c1 (stereo not shown) [Example 208]	22.9	57.6	76.8	84.4							
O=C(Nc1cccc(C(c2c(O)c3c(oc2=O)CCCCCC3)C2CC2)c1)c1cccc2ccccc12 (stereo not shown) [Example 212, 1-Naphthalenecarboxamide, N-[3-[cyclopropyl(5,6,7,8,9,10-hexahydro4-hydroxy-2-oxo-2H-cyclooct[b]pyran-3-yl)methyl]phenyl]-]		32.5	59.5	69.5							
CC(C)(C)OC(=O)NCC(=O)N(Cc1ccccc1)c1cccc(C(c2c(O)c3c(oc2=O)CCCCCC3)C2CC2)c1 (stereo not shown) [Example 216, Carbamic acid, [2-[[3-[cyclopropyl(5,6,7,8,9,10-hexahydro4-hydroxy-2-oxo-2H-cycloocta[b]pyran-3-yl)methyl]phenyl](phenylmethyl)amino]-2-oxyethyl]-, 1,1-dimethylethyl ester]			10.9	31.4							
CCC(c1cccc(NC(=O)OCc2ccccc2)c1)c1c(O)c2c(oc1=O)CCCCCC2 (stereo not shown) [Example 217, Carbamic Acid, [3-[1-(5,6,7,8,9,10-hexahydro-4-hydroxy-2-oxo-2H-cycloocta[b]pyran-3-yl)propyl]phenyl]-, phenyl methyl ester]		31.6	64.2	72.9							
CCC(c1cccc(N)c1)c1c(O)c2c(oc1=O)CCCCCC2 (stereo not shown) [Example 218, 2H-Cycloocta[b]pyran-2-one, 3-[1-(3-aminophenyl)propyl]-5,6,7,8,9,10-hexahydro-4-hydroxy-]	26.2	65.2	88	91.4							
